Test results published in patent publication US12448425B2, “Therapeutic peptides” (Board of Regents, The University of Texas System, priority 2019, dated 2025).
Square brackets hold non-standard residues; d marks the D form. Ends that are not written are not given here. Peptide text beside a SMILES is read from it.

Tests used:
[1] = tested on: EphB4 on the surface of A2780cp20 cells; format: cell-based, human; details: 1 h
Experimental: Cell-based binding assay. A2780cp20 ovarian cancer cells (1×10^6 cells/mL) were incubated with EFNB2-Fc (20 nM) and BIDEN-AP at concentrations ranging from 0 to 100 μM at 25° C. for 1 h. After washings, EFNB2-Fc bound to the cells were probed with PE-labeled anti-Fc antibody and analyzed by flow cytometry. Binding of BIDEN-AP to A2780cp20 cells was determined by its ability to displace EFNB2-Fc's binding to the tumor cells, measured by decreased PE fluorescence signal. Cells were analyzed in a Cellquest fluorocytometer (BD Bioscience, San Jose, CA). The experiments were run in duplicate.

[2] = tested on: MDA-HGSC-1 PDX tumor; details: mouse, in vivo
Description: PDX model of high grade serous ovarian carcinoma (HGSC). Under Institutional Review Board (IRB protocol PA15-0441) and IACUC approval at University of Texas, MD Anderson Cancer Center, patients with high-serous ovarian carcinoma that were being treated by at the MD Anderson Cancer Center were consented for this study. Subcutaneous HGSC-PDX model was established in 4-6 week old female Balb C athymic nude mice (Harlan Laboratories, Indianapolis, Ind.) by implanting one PDX 3×3×3 mm tumor cube (MDA-HGSOC-1 high-grade serous ovarian cancer; generation 9) at the dorsal portion of each mouse. Tumor size was monitored by caliber, and tumor volume was calculated using the formula V(cm^3)=(length×width^2)/2. Mice were randomly assigned to the PBS vehicle control or BIDEN-AP treatment group, 6 mice per group, once tumor size reached ˜100 mm^3 (21 days after implantation). PBS or BIDEN-AP was injected intraperitoneally at […] ([…]), once every other day for a total of 14 doses. At the end of the study (day 49), all mice were euthanized, and tumors were collected, weighted, and snap-frozen in optimal cutting temperature compound with liquid nitrogen, and cryosectioned into 5-μm sections for IHC staining of CD31 and Ki67 markers. […] Cell nuclei were counterstained with DAPI.

[3] = tested on: 4T1 cells; assay: 4T1 i.v. lung metastasis model; set-up: species or system mouse; details: throughout these in vivo studies
Description: FIGS. 25A-B: Anti-metastatic activity of BIDEN-AP. (FIG. 25A) Representative photographs of lungs from different treatment groups. The normal lung tissue was stained by blue ink. (FIG. 25B) Counts of surface metastatic nodules in the lung by visual inspection. Data are expressed as mean±SD. **p<0.01 (n=10).
BIDEN-AP was given at the same dose and the same schedule as in FIG. 24A. […] Thus, BIDEN-AP is highly anti-metastatic.

[4] = tested on: A2780cp20 cells; assay: Internalization of Alexa647-labeled peptides (confocal microscopy); format: cell-based, human
Experimental: FIGS. 2A-C: BIDEN-AP acts as an EphB4 agonist. (FIG. 2A) BIDEN-AP induced phosphorylation of EphB4 and the associated […] (Crk1). After 16 h serum starvation, A2780cp20 cells were incubated with EFNB2-Fc (20 nM), TNYL-RAW (SEQ ID NO: 12) (50 μM), or BIDEN-AP (50 μM) for 30 min or 2 h. The uncropped blots were available at Supplemental FIG. 11. (FIG. 2B) BIDEN-AP inhibited A2780cp20 cell invasion compared to untreated control (CTL). A modified Boyden transwell chamber coated with human defined matrigel was used. Experiments were performed in triplicate. Data are presented as mean±SD. ***p<0.001. (FIG. 2C) Alexa647-BIDEN-AP was internalized via receptor-mediated endocytosis. A2780cp20 cells were incubated at 37° C. with Alexa647-BIDEN-AP (0.05 μM), Alexa647-TNYL-RAW (SEQ ID NO: 12) (0.05 μM), or Alexa647-BIDEN-AP (0.05 μM) plus unlabeled TNYL-RAW (SEQ ID NO: 12) (5 μM, blocking). Alexa647-BIDEN-AP but not Alexa647-TNYL-RAW (SEQ ID NO: 12) was internalized into the A2780cp20 cells.
A2780cp20 cells were incubated at 4° C. with Alexa647-BIDEN-AP (0.05 μM).
Immunofluorescence imaging. A2780cp20 ovarian cancer cells (5×10^5 cells/well) were plated in 4-well chamber slides and treated with Alexa647-labeled BIDEN-AP (50 μM) for 1 h or 2 h. Cells were washed three times with 1×PBS and fixed in freshly prepared fixative containing 3.7% formaldehyde, 0.05% glutaraldehyde, and 0.4% Triton-X-100 in PHEMO buffer (0.068 M PIPES, 0.025 M HEPES, 0.015 M EGTA, 0.003 M MgCl2, and 10% ov/v dimethylsufoxide [DMSO]) for 10 min at room temperature. LysoTracker Green (Cat. L7526; Invitrogen, Carlsbad, CA) was used as a marker of lysosome. The nucleus was stained with Hoechst 33342 (300 nM) at room temperature for 10 min before mounting in Gel Mount mounting medium (Vector Laboratories, Burlingame, CA). Fixed and immunofluorescence-stained cells were imaged using a Zeiss LSM510 Meta laser scanning confocal system (Zeiss, Dublin, CA) configured to a Zeiss Axioplan 2 upright microscope with a CFI Plan Apo Lambda 20× objective lens. Images were obtained from three independent biological replicates.

[5] = target: T1, EphB4 (Homo sapiens, UniProt P54760); assay: SPR binding of peptides to immobilized EphB4; details: EphB4-coated sensor chips, 25° C.
T1 construct: purchased R&D Systems
T1 sequence (P54760 16-987): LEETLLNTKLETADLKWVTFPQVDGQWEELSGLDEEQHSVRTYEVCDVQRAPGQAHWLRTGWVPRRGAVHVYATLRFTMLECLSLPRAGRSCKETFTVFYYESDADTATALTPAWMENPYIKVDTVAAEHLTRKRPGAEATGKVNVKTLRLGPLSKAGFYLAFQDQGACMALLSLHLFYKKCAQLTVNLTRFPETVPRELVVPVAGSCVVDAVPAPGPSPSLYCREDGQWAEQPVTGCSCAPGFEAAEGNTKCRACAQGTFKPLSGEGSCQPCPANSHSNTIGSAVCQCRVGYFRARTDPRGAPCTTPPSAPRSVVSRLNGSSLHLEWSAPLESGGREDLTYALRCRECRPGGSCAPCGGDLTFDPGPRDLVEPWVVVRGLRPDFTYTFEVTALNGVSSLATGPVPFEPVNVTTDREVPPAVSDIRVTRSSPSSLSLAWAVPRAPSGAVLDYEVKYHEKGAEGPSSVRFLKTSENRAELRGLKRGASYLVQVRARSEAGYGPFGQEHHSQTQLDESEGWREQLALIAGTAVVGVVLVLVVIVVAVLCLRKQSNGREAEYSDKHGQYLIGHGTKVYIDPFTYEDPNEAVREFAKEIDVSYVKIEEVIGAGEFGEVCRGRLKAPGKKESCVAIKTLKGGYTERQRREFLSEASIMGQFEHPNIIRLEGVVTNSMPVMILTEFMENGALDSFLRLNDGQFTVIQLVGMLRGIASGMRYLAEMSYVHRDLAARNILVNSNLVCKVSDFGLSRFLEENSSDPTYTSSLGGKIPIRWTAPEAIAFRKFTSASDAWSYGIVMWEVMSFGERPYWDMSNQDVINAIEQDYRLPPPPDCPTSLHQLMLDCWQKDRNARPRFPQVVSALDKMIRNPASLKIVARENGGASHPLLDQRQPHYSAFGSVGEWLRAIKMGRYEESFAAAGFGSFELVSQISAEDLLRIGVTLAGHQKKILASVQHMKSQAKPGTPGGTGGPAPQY
Experimental: Surface plasmon resonance (SPR) binding and competition assays. A stock solution of EphB4 in PBS (100 μg/mL) was diluted to 25 μg/mL with 10 mM sodium acetate buffer (pH 4.5) and immobilized to CM5 sensor chips using the amine coupling reaction according to manufacturer-provided procedures (BIACore). Briefly, the surfaces of the chips in flow cells (FC)-1 and FC-2 were activated by exposing chips to a mixture of 200 mM N-ethyl-N′-dimethylaminopropyl carbodiimide and 50 mM N-hydroxysuccinimide for 7 min. FC-1 was used as a reference surface and was directly deactivated by injecting 1 M ethanolamine at pH 8.5 for 7 min. FC-2 was injected with 25 μg/mL human or murine EphB4 followed by injection of 1 M ethanolamine to block the remaining activated ester groups on the surface. The chips were allowed to stabilize for at least 2 h in HBSEP running buffer before injection of test analytes.

[6] = Zhang et al., 2011b; cited from earlier work

Compound: CC[C@H](C)[C@H](NC(=O)[C@@H]1CCCN1C(=O)CNC(=O)[C@H](CC(N)=O)NC(=O)[C@@H]1CCCN1C(=O)[C@H](CO)NC(=O)[C@H](Cc1ccccc1)NC(=O)[C@H](CC(C)C)NC(=O)[C@@H](Cc1ccc(O)cc1)NC(=O)[C@H](CC(N)=O)NC(=O)[C@@H](N)[C@@H](C)O)C(=O)N[C@@H](C)C(=O)N[C@@H](CCCNC(=N)N)C(=O)N[C@@H](C)C(=O)N[C@@H](Cc1c[nH]c2ccccc12)C(N)=O [BIDEN-AP] (H-TN[dY]LFSPNGPIARAW-NH2; C-terminus assumed)
- IC50 [1]: ~1 µM
- body weight change vs control group [2]: did not result in body weight change
- tolerability (treatment-related death, body weight) [3]: no cases of treatment-related death or change in body weight

Compound: Alexa647-BIDEN-AP: BIDEN-AP coupled with Alexa647-NHS (TN[dY]LFSPNGPIARAW; also: Alexa647 label, site not given here)
- cellular internalization at 37° C. [4]: readily internalized
- internalization in presence of excess unlabeled TNYL-RAW ([4]; 37° C., blocking): blocked

Compound: YSA-TNYL-RAW-dimer [B4-003]
- Kd [5]: 0.021 µM

Compound: CC[C@H](C)[C@H](NC(=O)[C@@H]1CCCN1C(=O)CNC(=O)[C@H](CC(N)=O)NC(=O)[C@@H]1CCCN1C(=O)[C@@H](CO)NC(=O)[C@H](Cc1ccccc1)NC(=O)[C@H](CC(C)C)NC(=O)[C@H](Cc1ccc(O)cc1)NC(=O)[C@H](CC(N)=O)NC(=O)[C@@H](N)[C@@H](C)O)C(=O)N[C@@H](C)C(=O)N[C@@H](CCCNC(=N)N)C(=O)N[C@@H](C)C(=O)N[C@@H](Cc1c[nH]c2ccccc12)C(N)=O [B4-006] (H-TNYLF[dS]PNGPIARAW-NH2)
- Kd [5]: > 1 µM

Compound: Alexa647-TNYL-RAW: TNYL-RAW coupled with Alexa647-NHS (TNYLRAW; also: Alexa647 label, site not given here) [reference compound]
- cellular internalization at 37° C. [4]: excluded

Compound: TNYLFSPNGPIARAW-NH2 (C-terminus assumed) [TNYL-RAW]
- area-under-the time curve [AUC] [6]: 29.1 % ID h/mL
